# pIC50: −log10 of the molar value.
# Tests used:
# [1] = test system: HDACs (HeLa cell nuclear extracts); experiment: HDAC enzymatic activity, Biomol Color de Lys system; assay type: biochemical
# Outline: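 IC50 from sigmoidal dose-response fits of fluorescence (Ex 350–380, Em 440–460 nm). Compounds in DMSO dilution series incubated 1 h at 25 °C with HeLa nuclear extract HDACs and colorimetric substrate, pH 8.0 Tris/Cl buffer with NaCl, KCl, MgCl2, before developer termination.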
SMILES,pIC50 [1],melting point [°C]
"CS(=O)(=O)N1CCN(Cc2cc3nc(-c4cccc5nn(CCCCC(=O)NO)cc45)nc(N4CCOCC4)c3s2)CC1 [Compound 7, N-hydroxy-5-(4-(6-((4-(methylsulfonyl)piperazin-1-yl)methyl)-4-morpholinothieno[3,2-d]pyrimidin-2-yl)-2H-indazol-2-yl)pentanamide]",6.00 to 7.00,146 to 169
"CN(Cc1cc2nc(-c3cccc4[nH]ncc34)nc(Nc3ccccc3)c2s1)c1ncc(C(=O)NO)cn1 [Compound 164, 2-(((2-(1H-indazol-4-yl)-4-(phenylamino)thieno[3,2-d]pyrimidin-6-yl)methyl)(methyl)amino)-N-hydroxypyrimidine-5-carboxamide]",> 7.00,232 to 235
"CN(Cc1cc2nc(-c3ccc(N)c(N)c3)nc(N3CCOCC3)c2s1)c1ncc(C(=O)NO)cn1 [Compound 156, 2-(((2-(3,4-diaminophenyl)-4-morpholinothieno[3,2-d]pyrimidin-6-yl)methyl)(methyl)amino)-N-hydroxypyrimidine-5-carboxamide]",> 7.00,222 to 225
"CN(Cc1cc2nc(-c3cccc4[nH]ncc34)nc(Nc3ccccn3)c2s1)c1ncc(C(=O)NO)cn1 [Compound 168, 2-(((2-(1H-indazol-4-yl)-4-(pyridin-2-ylamino)thieno[3,2-d]pyrimidin-6-yl)methyl)(methyl)amino)-N-hydroxypyrimidine-5-carboxamide]",> 7.00,200 to 203
"Nc1ncc(-c2nc(N3CCOCC3)c3sc(NS(=O)(=O)c4cccc(/C=C/C(=O)NO)c4)cc3n2)cn1 [Compound 218, (E)-3-(3-(N-(2-(2-aminopyrimidin-5-yl)-4-morpholinothieno[3,2-d]pyrimidin-6-yl)sulfamoyl)phenyl)-N-hydroxyacrylamide]",> 7.00,> 300
Nc1ncc(-c2nc(N3CCOCC3)c3sc(NCCCCC(=O)NO)cc3n2)cn1 [Compound 226],> 7.00,175 to 180
"O=C(NO)c1ccc(NCc2cc3nc(-c4cccc5[nH]ncc45)nc(N4CCOCC4)c3s2)cc1 [Compound 78, 4-((2-(1H-indazol-4-yl)-4-morpholinothieno[3,2-d]pyrimidin-6-yl)methylamino)-N-hydroxybenzamide]",> 7.00,180 to 183
"CN(CCCC(=O)NO)Cc1cc2nc(-c3cccc4[nH]ncc34)nc(N3CCOCC3)c2s1 [Compound 101, 4-(((2-(1H-indazol-4-yl)-4-morpholinothieno[3,2-d]pyrimidin-6-yl)methyl)(methyl)amino)-N-hydroxybutanamide]",< 5.00,115 to 118
"CCCN(Cc1cc2nc(-c3cccc4[nH]ncc34)nc(N3CCOCC3)c2s1)c1ncc(C(=O)NO)cn1 [Compound 84, 2-(((2-(1H-indazol-4-yl)-4-morpholinothieno[3,2-d]pyrimidin-6-yl)methyl)(propyl)amino)-N-hydroxypyrimidine-5-carboxamide]",> 7.00,224 to 226
"O=C(CCCCCNCc1cc2nc(-c3cccc4[nH]ncc34)nc(N3CCOCC3)c2s1)NO [Compound 43, 6-((2-(1H-indazol-4-yl)-4-morpholinothieno[3,2-d]pyrimidin-6-yl)methylamino)-N-hydroxyhexanamide]",> 7.00,128 to 130
"Nc1ncc(-c2nc(N3CCOCC3)c3sc(NS(=O)(=O)c4ccc(/C=C/C(=O)NO)cc4)cc3n2)cn1 [Compound 217, (E)-3-(4-(N-(2-(2-aminopyrimidin-5-yl)-4-morpholinothieno[3,2-d]pyrimidin-6-yl)sulfamoyl)phenyl)-N-hydroxyacrylamide]",> 7.00,> 300
"CC(C)CN(Cc1cc2nc(-c3cccc4[nH]ncc34)nc(N3CCOCC3)c2s1)c1ncc(C(=O)NO)cn1 [Compound 93, 2-(((2-(1H-indazol-4-yl)-4-morpholinothieno[3,2-d]pyrimidin-6-yl)methyl)(isobutyl)amino)-N-hydroxypyrimidine-5-carboxamide]",6.00 to 7.00,196 to 198
"CN(Cc1cc2nc(-c3ccc(C#N)cc3)nc(N3CCOCC3)c2s1)c1ncc(C(=O)NO)cn1 [Compound 146, 2-(((2-(4-cyanophenyl)-4-morpholinothieno[3,2-d]pyrimidin-6-yl)methyl)(methyl)amino)-N-hydroxypyrimidine-5-carboxamide]",> 7.00,214 to 216
"O=C(CCCCCCN1CCN(Cc2cc3nc(-c4cccc5[nH]ncc45)nc(N4CCOCC4)c3s2)CC1)NO [Compound 13, 7-(4-((2-(1H-indazol-4-yl)-4-morpholinothieno[3,2-d]pyrimidin-6-yl)methyl)piperazin-1-yl)-N-hydroxyheptanamide]",6.00 to 7.00,119 to 122
"Cc1ncc(-c2nc(N3CCOCC3)c3sc(NCCCCC(=O)NO)cc3n2)cn1 [Compound 229, N-Hydroxy-5-(2-(2-methylpyrimidin-5-yl)-4-morpholinothieno[3,2-d]pyrimidin-6-ylamino)pentanamide]",> 7.00,248 to 252
"CC(=O)Nc1cccc(-c2nc(N3CCOCC3)c3sc(CN(C)c4ncc(C(=O)NO)cn4)cc3n2)c1 [Compound 107, 2-(((2-(3-acetamidophenyl)-4-morpholinothieno[3,2-d]pyrimidin-6-yl)methyl)(methyl)amino)-N-hydroxypyrimidine-5-carboxamide]",> 7.00,183 to 185
"COc1ccc(-c2nc(N3CCOCC3)c3sc(NS(=O)(=O)c4cccc(/C=C/C(=O)NO)c4)cc3n2)cn1 [Compound 221, (E)-N-hydroxy-3-(3-(N-(2-(6-methoxypyridin-3-yl)-4-morpholinothieno[3,2-d]pyrimidin-6-yl)sulfamoyl)phenyl)acrylamide]",> 7.00,> 300
"CN(Cc1cc2nc(-c3ccc(Cl)cc3)nc(N3CCOCC3)c2s1)c1ncc(C(=O)NO)cn1 [Compound 147, 2-(((2-(4-chlorophenyl)-4-morpholinothieno[3,2-d]pyrimidin-6-yl)methyl)(methyl)amino)-N-hydroxypyrimidine-5-carboxamide]",> 7.00,153
"CN(Cc1cc2nc(-c3ccc(N4CCCC4)cc3)nc(N3CCOCC3)c2s1)c1ncc(C(=O)NO)cn1 [Compound 155, N-hydroxy-2-(methyl((4-morpholino-2-(4-(pyrrolidin-1-yl)phenyl)thieno[3,2-d]pyrimidin-6-yl)methyl)amino)pyrimidine-5-carboxamide]",> 7.00,187 to 192

# Continued, values first:
pIC50 [1],melting point [°C],SMILES
> 7.00,214 to 218,"CN(Cc1cc2nc(-c3ccc(N)c(O)c3)nc(N3CCOCC3)c2s1)c1ncc(C(=O)NO)cn1 [Compound 279, 2-(((2-(4-Amino-3-hydroxyphenyl)-4-morpholinothieno[3,2-d]pyrimidin-6-yl)methyl)(methyl)amino)-N-hydroxypyrimidine-5-carboxamide]"
> 7.00,125 to 130,"COc1ccc(-c2nc(N3CCOCC3)c3sc(NCCCCCC(=O)NO)cc3n2)cn1 [Compound 233, 6-[2-(6-Methoxy-pyridin-3-yl)-4-morpholin-4-yl-thieno[3,2-d]pyrimidin-6-ylamino]-hexanoic acid hydroxyamide]"
> 7.00,169 to 173,"C[C@@H](O)c1cccc(-c2nc(N3CCOCC3)c3sc(CN(C)c4ncc(C(=O)NO)cn4)cc3n2)c1 [Compound 297, (R)—N-Hydroxy-2-(((2-(3-(1-hydroxyethyl)phenyl)-4-morpholinothieno[3,2-d]pyrimidin-6-yl)methyl)(methyl)amino)pyrimidine-5-carboxamide]"
> 7.00,195 to 200,"CN(Cc1cc2nc(-c3ccc(N)c(CO)c3)nc(N3CCOCC3)c2s1)c1ncc(C(=O)NO)cn1 [Compound 285, 2-(((2-(4-Amino-3-(hydroxymethyl)phenyl)-4-morpholinothieno[3,2-d]pyrimidin-6-yl)methyl)(methyl)amino)-N-hydroxypyrimidine-5-carboxamide]"
> 7.00,270 to 275,"CNc1ccc(-c2nc(N3CCOCC3)c3sc(C(C)N(C)c4ncc(C(=O)NO)cn4)cc3n2)cn1 (centres unmarked) [Compound 237, N-Hydroxy-2-(methyl(1-(2-(6-(methylamino)pyridin-3-yl)-4-morpholinothieno[3,2-d]pyrimidin-6-yl)ethyl)amino)pyrimidine-5-carboxamide]"
> 7.00,143 to 145,"CN(Cc1cc2nc(-c3ccc(OCCO)nc3)nc(N3CCOCC3)c2s1)c1ncc(C(=O)NO)cn1 [Compound 256, N-Hydroxy-2-(((2-(6-(2-hydroxyethoxy)pyridin-3-yl)-4-morpholinothieno[3,2-d]pyrimidin-6-yl)methyl)(methyl)amino)pyrimidine-5-carboxamide]"
> 7.00,232 to 238,"Nc1ccc(-c2nc(N3CCOCC3)c3sc(C(=O)NCC4CCN(c5ncc(C(=O)NO)cn5)CC4)cc3n2)cc1 [Compound 307, 2-(4-Aminophenyl)-N-((1-(5-(hydroxycarbamoyl)pyrimidin-2-yl)piperidin-4-yl)methyl)-4-morpholinothieno[3,2-d]pyrimidine-6-carboxamide]"
> 7.00,162 to 165,"CCOc1ccc(-c2nc(N3CCOCC3)c3sc(CN(C)c4ncc(C(=O)NO)cn4)cc3n2)cn1 [Compound 255, 2-(((2-(6-ethoxypyridin-3-yl)-4-morpholinothieno[3,2-d]pyrimidin-6-yl)methyl)(methyl)amino)-N-hydroxypyrimidine-5-carboxamide]"
> 7.00,188 to 192,"CN(Cc1cc2nc(-c3cccc(SCCO)c3)nc(N3CCOCC3)c2s1)c1ncc(C(=O)NO)cn1 [Compound 290, N-Hydroxy-2-(((2-(3-(2-hydroxyethylthio)phenyl)-4-morpholinothieno[3,2-d]pyrimidin-6-yl)methyl)(methyl)amino)pyrimidine-5-carboxamide]"

# Source: patent publication US8906909B2 (Curis, Inc., priority 2009, dated 2014)
